# Reference: patent publication US8138314B2, “Compositions and methods of monoclonal and polyclonal antibodies specific for T cell subpopulations” (Beth Israel Deaconess Medical Center, Inc., priority 2000, dated 2012)
# B1: IL-12: human recombinant IL-12 (Genetics Institute), cytokine biasing T cells towards Th1 responses (protein, UniProt P29459 23-219; P29460 23-328, looked up)
# Interleukin-12 subunit alpha: RNLPVATPDPGMFPCLHHSQNLLRAVSNMLQKARQTLEFYPCTSEEIDHEDITKDKTSTVEACLPLELTKNESCLNSRETSFITNGSCLASRKTSFMMALCLSSIYEDLKMYQVEFKTMNAKLLMDPKRQIFLDQNMLAVIDELMQALNFNSETVPQKSSLEEPDFYKTKIKLCILLHAFRIRAVTIDRVMSYLNAS
# Interleukin-12 subunit beta: IWELKKDVYVVELDWYPDAPGEMVVLTCDTPEEDGITWTLDQSSEVLGSGKTLTIQVKEFGDAGQYTCHKGGEVLSHSLLLLHKKEDGIWSTDILKDQKEPKNKTFLRCEAKNYSGRFTCWWLTTISTDLTFSVKSSRGSSDPQGVTCGAATLSAERVRGDNKEYEYSVECQEDSACPAAEESLPIEVMVDAVHKLKYENYTSSFFIRDIIKPDPPKNLQLKPLKNSRQVEVSWEYPDTWSTPHSYFSLTFCVQVQGKSKREKKDRVFTDKTSATVICRKNASISVRAQDRYYSSSWSEWASVPCS
# B2: IL-7: cytokine added to T cell medium at 10 ng/ml (protein, UniProt P13232 26-177, looked up)
# Interleukin-7: DCDIEGKDGKQYESVLMVSIDQLLDSMKEIGSNCLNNEFNFFKRHICDANKEGMFLFRAARKLRQFLKMNSTGDFDLHLLKVSEGTTILLNCTGQVKGRKPAALGEAQPTKSLEENKSLKEQKKLNDLCFLKRLLQEIKTCWNKILMGTKEH
# Tests used:
# Type in all cases: cell-based, human
# invariant NK T cells = assay: 6B11 FACS sort or magnetic bead immunoaffinity purification of PBMC followed by expansion; conditions: for Yield of invariant T cells: addition during expansion of 6B11 bead purified cells (FIGS. 12-17)
# Protocol: Starting with PBMC in which approximately 0.05% of the lymphocytes in PBMC are invariant T cells, approximately 5-30% of the purified and expanded cells were invariant T cells.
# PBMC or another tissue source is blocked with autologous serum at 4° C. An antibody reactive with invariant T cells (e.g., 6B11 or 3A6 antibody) is added at a ratio of about 1-10 μg antibody/10^7-8 PBMC and incubated for 20 minutes at 4° C. The antibody used in this method may be directly labeled with a conjugate such as FITC or biotin, or the antibody may be indirectly labeled with second reagent (e.g., anti-IgG-Fluorochrome or streptavidin-Fluorochrome). One or more other antibodies labeled with different fluorophores may also be added (FIGS. 7A-7C and 9). The solution of cells and antibodies is then washed using PBS or any other physiological buffer to remove unbound antibody.
# If desired, the settings of the FACS cell sorter may be adjusted using either a positive (e.g., general anti-T cell antibody) or negative control antibody. The sample of interest may be analyzed at a rate of approximately 100 million cells per hour using a high speed FACS sorter (e.g., ‘MoFlo’FACS sorter). The purified T cells may be expanded in T cell media [e.g., 10% Fetal Bovine or human autologous or AB pooled serum in RPMI-1640 or equivalent media supplemented with buffer (e.g. Hepes), glutamine, and antibiotic (e.g., gentamicin)] in the presence of a mitogen such as PHA, an anti-CD3 antibody, the 6B11 antibody, the 3A6 antibody, and/or α-GalCer antigenic stimulus CD3 monoclonal antibody (Exley et al. 1997 and 1998, supra; Wilson et al., Nature 391:177, 1998). The antibody may be in solution or plate bound. Irradiated autologous feeders and IL-2 (10-100 U/ml) may also be added immediately or added at any time point during expansion. IL-7 (˜1-10 ng/ml) and/or IL-15 (˜1-10 ng/ml) may increase invariant NK T cells yields (e.g. Wilson et al. 1998, supra; van der Vliet et al. Journal of Immunological Methods 247:61-72, 2000). Dexamethasone or a related selective immune suppressive agent (˜1 μM) may preferentially enhance the growth of invariant NK T cells while inhibiting growth of conventional T cells (e.g. Milner et al., J. Immunol. 163(5):2522-25229, 1999). The media is replaced about twice a week with fresh media. During or subsequent to expansion (e.g., 2-4 weeks after expansion has begun), the T cells may be phenotypically analyzed by FACS. This analysis may be performed by staining with 6B11, anti-Vα24, anti-Vβ11, anti-CD4, anti-CD8αβ, or anti-CD161 antibodies.
# PBMC or another tissue source is blocked with 1-10% autologous serum by mixing at 4° C. in PBS or other physiological buffer. One or more antibodies that are reactive with invariant T cells (e.g., 6B11 or 3A6 antibody) is added at a ratio of about 1-10 μg monoclonal antibody/10^7-8 PBMC is incubated for 20 minutes at 4° C. The antibody used in this method may be directly labeled with a conjugate such as FITC or biotin or the antibody may be indirectly labeled with second reagent (e.g., anti-IgG-Fluorochrome or streptavidin-Fluorochrome). One or more other antibodies labeled with different fluorophores may also be added (FIGS. 7A-7C and 9). The solution of cells and antibodies is then washed using PBS or any other physiological buffer. Magnetic beads, such as ˜10-100 μl Miltenyi MACS Microbeads Anti-mouse IgG #484 or MACS Steptavidin Microbeads #481 per 10^7-8 PBMC; 10^5-7 Dynal Anti-IgG #M450 beads per 10^7-8 PBMC are added and the solution is mix at 4° C. […] The washed, purified cells are placed into multi-wells with T cell media [10% Fetal Bovine or human autologous or AB pooled serum in RPMI-1640 or equivalent media supplemented with buffer (e.g. Hepes), glutamine, and antibiotic (e.g. gentamicin)]. The cells may be expanded using a monoclonal antibody that is directly bound to the beads or in solution. […]
# [1] = system: Vα24^+ Vβ11^+ invariant NK T cells; assay: Ex vivo expansion of FACS purified Vα24^+ T cells with α-GalCer and autologous irradiated PBMCs, flow cytometry
# Protocol: (§1) Peripheral blood (10-20 ml) was drawn in heparin containing tubes from healthy donors and prostate cancer patients who had given their informed consent. PBMCs were isolated using Ficoll-Paque (Amersham Pharmacia, Uppsala, Sweden). Vα24 positive T cells were stained with an anti-Vα24 monoclonal antibody (C15) (Coulter, Miami, Fla.) followed by a goat anti-mouse IgG (H^+L) FITC conjugate (KPL, Gaithersburg, Md.) and were sorted by high speed FACS (Modular Flow FACS, Cytomation, Boulder, Colo.) (Dellabona et al., J. Exp. Med. 180:1171, 1994). Autologous PBMCs were irradiated (5000 rads) and used as APCs. The FACS purified Vα24^+ cells were initially co-cultured in 96 well flat bottomed plates (approximately 20,000 per well) with equal numbers of autologous irradiated PBMCs in the presence of α-GalCer (50 ng/ml, KRN7000, Kirin Brewery Co., Gunma, Japan) and recombinant IL-2 (100 U/ml) (National Cancer Institute, Bethesda, Md.). Cultures were then gradually expanded into 24 well plates using the same medium. In some cultures, human recombinant IL-12 (1 ng/ml) (Genetics Institute, Cambridge, Mass.) was added during the last week of culture.
# Phenotypic analysis of α-GalCer expanded cells was performed by two or three color flow cytometery after three to four weeks in culture. Previous reports have shown that dual staining for Vα24 and Vβ11 is a marker of invariant NK T cells, as Vα24 and Vβ11 are used very infrequently by bulk T cells (Dellabona et al., J. Exp. Med. 180:1171, 1994; Exley et al., J. Exp. Med. 186:109, 1997; Prussin and Foster J. Immunol. 159:5862, 1997). Antibodies used were anti-Vα24 PE, anti-Vβ11 FITC, anti-CD8β PE (Immunotech), anti-CD3 Cychrome, anti-CD161 PE, and anti-CD4 Cychrome (PharMingen, La Jolla, Calif.). As described previously (Exley et al., J. Exp. Med. 186:109, 1997; Exley et al., J. Exp. Med. 188:867, 1998), approximately 1×10^6 cells were suspended in 50 μl of FACS buffer (phosphate buffered saline with 1% fetal bovine serum and 0.1% NaN3) in single wells of 96 well plates (Exley et al., J. Exp. Med. 186:109, 1997; Exley et al, J. Exp. Med. 188:867, 1998). Non-specific antibody binding was blocked by pre-incubating cells with 10% human serum for 15 minutes on ice. Antibodies were then added to cell suspensions and incubated for 20 minutes on ice. Cells were washed twice with FACS buffer and analyzed using a FACScan (Becton Dickinson) with Cell Quest Software.
# Due to the small numbers of invariant NK T cells in peripheral blood, one round of ex vivo expansion was carried out to further assess the frequency and function of these cells. Invariant NK T cells from healthy donors and advanced prostate cancer patients were isolated from peripheral blood through an initial FACS purification with a Vα24 specific monoclonal antibody, followed by selective expansion in vitro for three to four weeks with α-GalCer and autologous irradiated PBMCs as a source of APCs. T cells were then analyzed by dual staining with Vα24 and Vβ11 or 6B11 monoclonal antibodies.
# [2] = system: prostate cancer derived invariant NK T cells; assay: IL-12 treatment of prostate cancer derived invariant NK T cells during last week of culture, cytokine ELISA
# Protocol: as §1, with “Cultures were then gradually expanded into 24 well plates using the same medium. In some cultures, human recombinant IL-12 (1 ng/ml) (Genetics Institute, Cambridge, Mass.) was added during the last week of culture.” left out
# In addition to being present at reduced levels, invariant NK T cells have reduced activity in prostate cancer patients. […] Released cytokine levels were determined in triplicates by capture ELISA with matched antibody pairs in relation to cytokine standards (Endogen, Inc. Cambridge, Mass.). […]
# As invariant NK T cells may contribute to the anti-tumor effects of IL-12, it was next determined whether these cancer patient derived cells could respond to IL-12. […]
# [3] = system: CD1d-reactive Vα24^+Vβ11^+ T cell lines; assay: Ex vivo expansion of invariant NK T cell lines with IL-12, stimulation with anti-CD3 and CD161 antibody; conditions: for IFN-γ / IL-4 / Proliferation: plate-bound anti-CD3 and excess CD161 antibody
# Excerpt: NK T cells, CD1d-reactive T cells, or JαQ^+ T cells may be biased towards Th1-like NK or lymphokine-activated killer (LAK)-like cytotoxicity of invariant T cells, as well as, IFN-γ production to potentially augment their in vivo anti-tumor or anti-pathogen activity.
# [4] = expansion using α-GalCer after expansion using 6B11
# [5] = addition during expansion, at the concentrations tested (FIGS. 12-17)
molecule,measurement,setting,value
"CCCCCCCCCCCCCCCCCCCCCCCCCC(=O)N[C@@H](CO[C@H]1O[C@H](CO)[C@H](O)[C@H](O)[C@H]1O)[C@H](O)[C@H](O)CCCCCCCCCCCCCC [α-GalCer, α-galactosylceramide]",Number of invariant T cells,invariant NK T cells; [4],did increase the number of invariant T cells
same,Purity of invariant T cells,invariant NK T cells; [4],did not improve the purity of invariant T cells
same,Invariant NK T cells among expanded cells,[1]; androgen ablation refractory prostate cancer patient (FIG. 21B),13.6%
same,Invariant NK T cells among expanded cells,[1]; androgen ablation treated prostate cancer patient in remission (FIG. 21C),75%
same,Invariant NK T cells among expanded cells,[1]; healthy donor (FIG. 21A),98.5%
same,Vα24^+ Vβ11^+ population of total cells,"[1]; healthy donor, α-GalCer and autologous irradiated PBMCs (FIG. 20B)",94.4%
same,"Recovery of Vα24^+ Vβ11^+ invariant NK T cells, mean",[1]; healthy donors (FIG. 21D),> 80%
same,"Recovery of Vα24^+ Vβ11^+ invariant NK T cells, mean",[1]; series of advanced androgen independent prostate cancer patients (FIG. 21D),10%
same,Expanded Vα24^+ Vβ11^+ T cells expressing CD161,"[1]; series of healthy donors, each donor",> 70%
IL-15: cytokine added to T cell medium at 10 ng/ml,Yield of invariant T cells,invariant NK T cells,increased the yield of invariant T cells
same,Purity of invariant T cells,invariant NK T cells; [5],did not increase the purity of invariant T cells
phytohemagglutinin [PHA],Vα24^+ Vβ11^+ T cell population after stimulation,[1]; FACS purified Vα24^+ T cells stimulated with mitogen (FIG. 20A),yielded only a minor population of Vα24^+ Vβ11^+ T cells
B1,IFN-γ production,[2]; 1 ng/ml during the last week of culture,marked increase in IFN-γ production
same,Ratios of IFN-γ/IL-4 production,[2]; 1 ng/ml during the last week of culture (FIG. 22E),comparable to those in the healthy donors
same,IFN-γ/IL-4,"[3]; line 1, established with IL-12",>100
same,IFN-γ,"[3]; line 1, established with IL-12",>500
same,IL-4,"[3]; line 1, established with IL-12",4.8
same,Proliferation,"[3]; line 1, established with IL-12",56593
same,IFN-γ/IL-4,"[3]; line 2, established with IL-12",207
same,IFN-γ,"[3]; line 2, established with IL-12",331.8
same,IL-4,"[3]; line 2, established with IL-12",1.6
same,Proliferation,"[3]; line 2, established with IL-12",42499
B2,Yield of invariant T cells,invariant NK T cells,increased the yield of invariant T cells
same,Purity of invariant T cells,invariant NK T cells; [5],did not increase the purity of invariant T cells
